Assay results taken from paper PMC12052975, “A key residue of the extracellular gate provides quality control contributing to ABCG substrate specificity” (Nature Communications, 2025).
Numbering of substitutions follows the chain as printed.

Experiments:
Assay type in all cases: cell-based
ABCG36/PDR8/PEN3 [1] = biological target: T1, ABCG36/PDR8/PEN3 (Arabidopsis thaliana, UniProt Q9XIE2, L704S); test: radiolabel export from transfected N. benthamiana protoplasts; details: labelled compound; export 25 °C, 15 min
T1 construct: full length, 35S:ABCG36-GFP (GFP tag kept), Agrobacterium-transfected Nicotiana benthamiana mesophyll protoplasts or microsomes; full-size PDR-type ABC transporter
T1 sequence (Q9XIE2 1-1469 L704S): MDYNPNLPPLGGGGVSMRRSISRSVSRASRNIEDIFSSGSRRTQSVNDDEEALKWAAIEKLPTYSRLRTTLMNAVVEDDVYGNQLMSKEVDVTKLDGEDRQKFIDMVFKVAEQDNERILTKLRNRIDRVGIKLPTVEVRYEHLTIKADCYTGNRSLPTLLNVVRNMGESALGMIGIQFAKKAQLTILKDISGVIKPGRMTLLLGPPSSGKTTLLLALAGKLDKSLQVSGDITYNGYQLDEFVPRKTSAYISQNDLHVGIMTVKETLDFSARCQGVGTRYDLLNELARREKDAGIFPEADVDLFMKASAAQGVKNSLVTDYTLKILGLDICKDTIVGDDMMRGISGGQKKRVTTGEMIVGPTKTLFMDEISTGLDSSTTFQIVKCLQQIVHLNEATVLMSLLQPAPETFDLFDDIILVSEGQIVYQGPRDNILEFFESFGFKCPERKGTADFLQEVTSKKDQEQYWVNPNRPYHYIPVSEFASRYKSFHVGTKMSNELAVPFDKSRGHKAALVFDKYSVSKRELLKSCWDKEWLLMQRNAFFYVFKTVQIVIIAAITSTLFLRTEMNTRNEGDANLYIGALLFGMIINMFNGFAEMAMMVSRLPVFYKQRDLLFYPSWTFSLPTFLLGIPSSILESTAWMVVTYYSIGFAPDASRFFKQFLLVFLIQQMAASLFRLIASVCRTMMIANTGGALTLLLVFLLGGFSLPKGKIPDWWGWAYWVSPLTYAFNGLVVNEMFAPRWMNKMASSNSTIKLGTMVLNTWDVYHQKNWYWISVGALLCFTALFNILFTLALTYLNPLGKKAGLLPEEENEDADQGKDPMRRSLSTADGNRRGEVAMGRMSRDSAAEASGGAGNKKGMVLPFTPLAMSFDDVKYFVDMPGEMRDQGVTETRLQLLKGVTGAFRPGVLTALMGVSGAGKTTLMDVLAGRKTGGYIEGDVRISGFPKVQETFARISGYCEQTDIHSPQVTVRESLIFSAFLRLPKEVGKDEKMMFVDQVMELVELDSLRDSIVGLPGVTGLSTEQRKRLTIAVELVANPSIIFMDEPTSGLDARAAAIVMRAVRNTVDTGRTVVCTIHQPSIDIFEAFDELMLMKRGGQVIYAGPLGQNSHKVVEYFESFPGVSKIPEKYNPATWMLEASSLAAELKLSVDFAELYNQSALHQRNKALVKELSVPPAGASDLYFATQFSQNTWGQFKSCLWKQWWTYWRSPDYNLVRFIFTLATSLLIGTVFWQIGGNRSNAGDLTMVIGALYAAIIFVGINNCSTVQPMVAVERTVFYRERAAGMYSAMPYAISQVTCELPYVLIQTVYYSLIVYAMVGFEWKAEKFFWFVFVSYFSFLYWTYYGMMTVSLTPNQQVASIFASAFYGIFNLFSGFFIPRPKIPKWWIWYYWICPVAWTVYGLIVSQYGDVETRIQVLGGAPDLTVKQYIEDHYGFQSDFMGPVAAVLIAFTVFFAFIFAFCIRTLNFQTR

ABCG36/PDR8/PEN3 [2] = biological target: T2, ABCG36/PDR8/PEN3 (Arabidopsis thaliana, UniProt Q9XIE2, L704F); test: radiolabel export from transfected N. benthamiana protoplasts; also stimulates ATPase in microsomes; details: labelled compound; export 25 °C, 15 min; ATPase with 50 μM compound at pH 9.0
T2 construct: full length, 35S:ABCG36-GFP (GFP tag kept), Agrobacterium-transfected Nicotiana benthamiana mesophyll protoplasts or microsomes; full-size PDR-type ABC transporter
T2 sequence (Q9XIE2 1-1469 L704F): T1 sequence (Q9XIE2 1-1469 L704S) with S704F

ABCG36/PDR8/PEN3 [3] = biological target: T3, ABCG36/PDR8/PEN3 (Arabidopsis thaliana, UniProt Q9XIE2); test: radiolabel export from transfected N. benthamiana protoplasts; also stimulates ATPase in microsomes; specific binding to Arabidopsis microsomes; details: labelled compound; export 25 °C, 15 min; ATPase with 50 μM compound at pH 9.0; binding at 10 nM
T3 construct: full length, 35S:ABCG36-GFP (GFP tag kept), Agrobacterium-transfected Nicotiana benthamiana mesophyll protoplasts or microsomes; full-size PDR-type ABC transporter
T3 sequence (Q9XIE2 1-1469): T1 sequence (Q9XIE2 1-1469 L704S) with S704L

| Compound | radiolabel export from transfected N. benthamiana protoplasts (ABCG36/PDR8/PEN3 [1]) | radiolabel export from transfected N. benthamiana protoplasts; also stimulates A (ABCG36/PDR8/PEN3 [2]) | radiolabel export from transfected N. benthamiana protoplasts; also stimulates A (ABCG36/PDR8/PEN3 [3]) |
| --- | --- | --- | --- |
| O=C(O)Cc1c[nH]c2ccccc12 [IAA] | gain-of-IAA transport for polar but uncharged serine |  |  |
| O=C(O)CCCc1c[nH]c2ccccc12 [IBA, indole-3-butyric acid] |  | the L704F (abcg36-5) variant had no effect on ABCG36-mediated IBA export | stimulated by its substrates (IBA and CLX) but not by non-transported indolic compounds |
| c1ccc2c(-c3nccs3)c[nH]c2c1 [CLX, 3-thiazol-2-yl-indole] |  |  | stimulated by its substrates (IBA and CLX) but not by non-transported indolic compounds |
